Reference: ChEMBL document CHEMBL1146541, “New cytotoxic indolic metabolites from a marine Streptomyces” (2003)
The source made the active and inactive calls.

Legend:
[1] = system: K562; assay: Cytotoxicity against human K562 cells; format: functional
[2] = system: LNCaP; assay: Cytotoxicity against human LNCAP cells; format: functional, cell-based
[3] = system: HMEC-1; assay: Cytotoxicity against human HMEC1 cells; format: functional, cell-based
[4] = system: PANC-1; assay: Cytotoxicity against human PANC1 cells; format: functional, cell-based
[5] = system: LoVo; assay: Cytotoxicity against human LoVo cells; format: functional, cell-based
[6] = system: LoVo; assay: Cytotoxicity against doxorubicin-resistant human LoVo cells; format: functional, cell-based

Measured: Activity

CC(C)=CCc1ccc2c(CC#N)c[nH]c2c1
inactive: all assays above
